5 compounds from patent US20090162351A1, “Transdiscal administration of inhibitors of p38 MAP kinase” (DePuy Spine, Inc., priority 2007, published 2009) can be followed below.

Holding throughout (assay type): cell-based
Experiment [1] deals with injured bovine articular cartilage explants in inflammatory medium. The experiment is described as follows: Drop tower model: GAG degradation in injured cartilage explants. The following applies: for inhibition at 10 µM: Bos taurus, injured cartilage explants. The text has this:
In order to assess cartilage breakdown by inflammatory mediators and the effect of antagonists on those mediators, a cartilage impact model (the “drop tower model”) was established using a drop tower device to apply a peak compressive stress to a cartilage sample of about 20-30 MPa over an area of about 11-15 mm^2. Advantages of this model included its clinical relevance due to its potential to mimic several key parameters of osteoarthritis such as inflammatory cell mediators (by co-culturing with inflammatory cells), and induction of trauma to create the cartilage damage.
In the “drop tower design model” cartilage explants were first injured and then cultured in inflammatory medium to mimic the progression of joint impact trauma linked to cartilage degeneration and osteoarthritis. The approach of the model is to artificially produce cellular damage without gross structural alterations, and to determine how the cells respond to such an insult over the ensuing days when treated with or without potential therapeutic agents.
The device comprises a vertical rail that guides a sliding weight from 0.1 kg to 3 kg directly onto a force transducer which is situated at the bottom of the device. A sphere-shaped 2 mm indenter resting on a specimen is located at the bottom of the vertical rail. The indenter is held by a stop screw. The specimen is rigidly attached to a tissue holder underneath the indenter, to avoid side movements, the specimen is rigidly attached to the tissue holder. In this manner, the force transducer transduces a force indirectly onto the specimen. Adjusting the weight of a mass and height from which the mass drops varies the magnitude of the intended impact. For example, a weight mass (e.g., […]) held by a weight holder can be released from a height of e.g., 36 cm and dropped onto the force transducer.
Samples for compound evaluation were tested using either of two different methods to induce inflammatory conditions. One method utilized media conditioned from peripheral blood mononuclear cells (PBMCs) stimulated with LPS (“+LPS”) or non-inflammatory media without LPS (“−LPS”). Another method utilized the absence or presence of a cocktail of cytokines.
In the first method, bovine or human PBMCs were freshly prepared using Ficoll gradient by Lampire Biological Laboratories, Inc. PBMCs in RPMI w/10% FCS at delivery were spun down at 1500 rpm for twenty minutes and the cell pellet was washed twice with 1×PBS to wash off the residual Ficoll. The cells were then resuspended at a density of 1×10^6/ml in RPMI supplemented with 10% FCS, 1× Antibiotics-Antimycotics. The suspension was divided into two aliquots. One aliquot was stimulated with 10 μg/ml of LPS and the other was not stimulated. Both aliquots were then incubated at 37° C., 5% CO2 for twenty-four to seventy-two hours. The conditioned media with or without LPS stimulation are collected, aliquoted, and stored in −80° C. for a maximum of three months. Each conditioned medium was assessed for levels of pro-inflammatory cytokines to ensure their secretion from PBMC. A representative cytokine, IL-6, was assayed by ELISA using a Human IL-6 Quantikine kit and it was shown that the LPS-stimulated medium had at least 10 ng/ml of IL-6, while IL-6 was undetectable in the unstimulated medium.
In the second method, the explants were cultured at 37° C., 5% CO2 either in stimulated or non-stimulated conditioned medium as described above or in defined medium containing DMEM supplemented with 1% FCS, 1× insulin-transferrin-sodium selenite media supplement and Antibiotics-Antimycotics in the presence or absence of a cocktail of cytokines containing 10 ng/ml of IL-1β, 100 ng/ml of TNFα and 5 ng/ml of IFN-γ. The compounds were solubilized in H2O, Ethanol or DMSO (10^−2 M) according to suppliers' instructions and further diluted with either conditioned medium stimulated with or without LPS to the required concentrations. DMSO concentrations in the culture media never exceeded 1%. […]

Experiment [2] concerns PGE2 synthesis in injured bovine cartilage explants. The experiment is described as follows: Drop tower model: PGE2 synthesis in injured cartilage explants. Here is the method: (§1) In the second method, the explants were cultured at 37° C., 5% CO2 either in stimulated or non-stimulated conditioned medium as described above or in defined medium containing DMEM supplemented with 1% FCS, 1× insulin-transferrin-sodium selenite media supplement and Antibiotics-Antimycotics in the presence or absence of a cocktail of cytokines containing 10 ng/ml of IL-1β, 100 ng/ml of TNFα and 5 ng/ml of IFN-γ. The compounds were solubilized in H2O, Ethanol or DMSO (10^−2 M) according to suppliers' instructions and further diluted with either conditioned medium stimulated with or without LPS to the required concentrations. DMSO concentrations in the culture media never exceeded 1%. This concentration of DMSO has no effect on cartilage proteoglycan metabolism in response to cytokines. The injured and noninjured cartilage explants were treated with compound-containing medium for three to five days. The specimens were first treated with compounds at desired concentrations at 37° C. for one hour and then incubated for three to five days in the absence or presence of the cocktail of cytokines. At the end of the incubation, media and cartilage samples were harvested and frozen for further analysis.
PGE2 was measured with STAT-Prostaglandin E2 EIA ELISA kit (Cayman Biochemicals), as described in Example III above. The antibody-PGE2 complex binds to a goat polyclonal anti-mouse IgG that has been previously attached to the well. After washing to remove any unbound reagents, para-nitrophenyl phosphate (pNPP) was added to the well. The product of this enzymatic reaction absorbs strongly at 412 nm. Because of the large range in response to IL-1β and other cytokines, PGE2 values were converted to log scale prior to doing t-tests.

Experiment [3] has as its system NO production in injured bovine cartilage explants. Briefly: Drop tower model: NO production in injured cartilage explants. The following applies: Bos taurus; at 10 μM; injured cartilage explants. How it is done:
as §1
Nitrate/Nitrite was measured using the Griess reaction (Green L. C. et al., “Analysis of Nitrate, Nitrite, and [15N]nitrate in Biological Fluids,” Anal. Biochem. 126: 131-138 (1982)) with a Nitrate/Nitrite Colorimetric Assay Kit (Cayman Chemicals), as described in Example III above.

In experiment [4] the test system is bovine chondrocyte pellets / ARC tissues stimulated with IL-1β. The experiment is described as follows: Chondrocyte pellet / ARC culture model: GAG degradation assay. As to conditions: Table 3B. The text has this:
A chondrocyte pellet culture model was developed for in vitro high throughput screening of therapeutic compounds for inhibition of IL-1β-stimulated matrix degradation. The chondrocyte pellet culture model can be used to detect various potential therapeutic compounds effective in blocking different processes caused by IL-1β stimulation. For example, IL-1β stimulation results in increased glycosaminoglycan (GAG) degradation, prostaglandin E2 (PGE2) synthesis and total nitrite/nitrate production. Compounds with different mechanisms of action may inhibit the increase of one or two or all three of these parameters. For this reason, screening by, for example, measuring only GAG release would be limited to detection of a specific class of inhibitors and may not detect compounds with diversified mechanisms of function which may be involved in inhibition of the IL-1 stimulated inflammatory process. The development of the chondrocyte pellet culture assay system in a 96-well plate made possible large-scale screening of potential therapeutic compounds with different mechanisms of action.
(§2) Calf articular cartilage was obtained from the knee joints of eight to twelve month old animals and was processed within twenty-four hours after sacrifice. After removal of muscle and ligament, the cartilage was kept moist using phosphate buffer solution (PBS) to prevent tissue dehydration, and was aseptically peeled off from subchondral bone with a scalpel, and the cartilage pieces were further minced into smaller pieces (˜0.3-0.5×˜0.2-0.5 cm cubes). […] Chondrocytes were then enzymatically isolated from the tissue by incubation for overnight at 37° C. with gentle agitation in 0.2% collagenase in Dulbecco's modified eagle media (DMEM). After removal of tissue debris by filtration through cell strainer and the residual collagenase by 3× wash in PBS, cells were finally resuspended at a density of 2.5×10^6 cells/ml in chondrocyte medium. A 1 ml aliquot of the cell suspension was dispensed into either a 15 ml Falcon centrifuge tube or a 96 deep-well plate and centrifuged at 2000×g for five minutes. The chondrocyte pellets were incubated at 37° C. in a humidified atmosphere of 5% CO2 for two to three weeks with a medium change every other day.
(§3) As an alternative to using calf articular cartilage, a commercial Aliginate Recovered Chondrocytes (ARC) system was also used (Articular Engineering, LLC (Northbrook, Ill.)). Use of the commercial system cut down on labor and time in producing chondrocyte pellet. This system produced cartilaginous tissue in vitro using bovine chondrocytes. The first step consisted of culturing chondrocytes in alginate under conditions optimal for the formation of a cell-associated matrix (CM). The second step allowed these cells with their CM, after recovery, to rapidly form and become integrated into a solid mass of cartilage on a porous insert within two weeks.
This tissue is rich in cells surrounded by a cell-associated matrix that is degraded rapidly when the cells are exposed to IL-1. ARC tissues in 3 mm punches at delivery were first dispensed into a 96 deep-well plate, one punch per well, for compound treatment. The subsequent procedures were the same as those used for the chondrocyte pellets.
(§4) Chondrocyte pellets were washed once with 1 ml of Chondrocyte Stimulation Medium and equilibrated in the same medium at room temperature for fifteen to thirty minutes. Compounds were dissolved in H2O, Ethanol or dimethyl sulfoxide (DMSO) (10^−2 M) according to suppliers' instructions and further diluted with Chondrocyte Stimulation Medium to the required concentrations. DMSO concentrations in the culture media should not exceed 1%; this concentration of DMSO has no effect on cartilage proteoglycan metabolism in response to cytokines.
The pellets were first treated with compounds at desired concentrations at 37° C. for one hour and then incubated for three to five days in the absence or presence of 10 ng/ml of IL-1β. […]

The subject of experiment [5] is IL-1β-stimulated PGE2 synthesis in bovine chondrocyte pellets / ARC tissues. The experiment is described as follows: Chondrocyte pellet / ARC culture model: Prostaglandin E2 assay. As to conditions: Table 3B.
Source text: as §2, §3, §4
(§5) The pellets were first treated with compounds at desired concentrations at 37° C. for one hour and then incubated for three to five days in the absence or presence of 10 ng/ml of IL-1β. At the end of the incubation, media and pellets were harvested and frozen for further analysis. Pellets were also fixed as needed in 4% (w/v) paraformaldehyde in PBS for histology analysis.
Prostaglandin E2 (PGE2) was measured with a STAT-Prostaglandin E2 EIA ELISA kit (Cayman Biochemicals). This assay is based on the competition between PGE2 from 50 μl samples and a PGE2-alkaline phosphatase conjugate for a limited amount of PGE2 monoclonal antibody in a reaction volume of 150 μl at room temperature for one hour. The antibody-PGE2 complex bound to a goat polyclonal anti-mouse IgG that had been previously attached to the well. After washing to remove any unbound reagents, para-nitrophenyl phosphate (pNPP) was added to the well. The product of this enzymatic reaction absorbs strongly at 412 nm. Because of the large range in response to IL-1β and other cytokines, PGE2 values were converted to log scale prior to doing t-tests.
To characterize the relative efficacies among different p38 MAP kinase inhibitors, dose-response curves were generated for both PGE2 and NO assays. […] After one hour of treatment, ARCs were stimulated with or without 7.5 ng/ml IL-1β and continued to incubate for five days before assay. The IL-1β-stimulated PGE2 synthesis or NO production was first calculated by subtraction of PGE2/NO levels in the absence of IL-1β from that in the presence of IL-1β. […]

The subject of experiment [6] is IL-1β-stimulated NO production in bovine chondrocyte pellets / ARC tissues. Briefly: Chondrocyte pellet / ARC culture model: total nitrite and nitrate assay. As to conditions: Table 3B.
Source text: as §2, §3, §4, §5
Nitrate/Nitrite levels were measured using the Griess reaction (Green L. C. et al., “Analysis of Nitrate, Nitrite, and [15N]nitrate in Biological Fluids,” Anal. Biochem. 126: 131-138 (1982)) with a Nitrate/Nitrite Colorimetric Assay Kit (Cayman Chemicals), the contents of which are incorporated herein by reference. The assay involved a simple two-step process. The first step involved conversion of nitrate in 50 μl of culture medium to nitrite utilizing nitrate reductase in a reaction volume of 100 μl at room temperature for two hours. The second step involved the addition of 50 μl of both Griess Reagent 1 and 2, which converted nitrite into a deep purple azo compound in ten minutes. Photometric measurement of the absorbance at 540 or 550 nm due to this azo chromophore accurately determined nitrite concentration. This assay kit cannot be used for RPMI (Roswell Park Memorial Institute) derived tissue culture medium due to interference with the colorimetric reaction.
To characterize the relative efficacies among different p38 MAP kinase inhibitors, dose-response curves were generated for both PGE2 and NO assays. […] After one hour of treatment, ARCs were stimulated with or without 7.5 ng/ml IL-1β and continued to incubate for five days before assay. […]

With `CNC(=O)[C@H](Cc1ccccc1)NC(=O)[C@H](CC(C)C)[C@H](CSc1cccs1)C(=O)NO` [Batimastat, reference compound], the inhibition at 10 µM in experiment [1] and in experiment [3] was 100% each time. Besides, the “PGE2 synthesis (in words)” value in experiment [2] (10 μM, cocktail of cytokines (IL-1β, TNF-α, INF-γ), five days) is given as “did not inhibit”. Moreover, the “Inhibition of PGE2 synthesis (in words)” value in experiment [2] (Table 4) is “No effect”.

Turning to `C[C@H]1[C@H](C)CC[C@]2(C(=O)O[C@@H]3O[C@H](CO[C@@H]4O[C@H](CO)[C@@H](O[C@@H]5O[C@@H](C)[C@H](O)[C@@H](O)[C@H]5O)[C@H](O)[C@H]4O)[C@@H](O)[C@H](O)[C@H]3O)CC[C@]3(C)C(=CC[C@@H]4[C@@]5(C)C[C@@H](O)[C@H](O)[C@@](C)(CO)[C@@H]5[C@H](O)C[C@]43C)[C@H]12` [Madecassoside, reference compound], in experiment [4], the “GAG Release, Pellet Assay (in words)” value was “No effect”. In addition, the “PGE2 Inhibition, Pellet Assay (in words)” value in experiment [5] is given as “No effect”. In experiment [6], the “NO Inhibition, Pellet Assay (in words)” value is on record as “No effect”.

Turning to `CN1C(C(=O)Nc2ccccn2)=C(O)c2ccccc2S1(=O)=O` [Proxicam, reference compound], in experiment [4], the “GAG Release, Pellet Assay (in words)” value is “No effect”. In addition, the “Inhibition of GAG degradation (in words)” value in experiment [1] (Table 4, injured cartilage explants, inflammatory conditions) is on record as “No effect”.

`CC(C(=O)O)c1ccc(C(=O)c2ccccc2)s1` (centres unmarked) [Tiaprofenic Acid, reference compound]: the “GAG Release, Pellet Assay (in words)” value in experiment [4] was “No effect”. The compound also showed an inhibition at 10 µM in experiment [1] of 70%.

As for `CC1(C)O[C@@H]2[C@@H](CO[C@@]3(COS(N)(=O)=O)OC(C)(C)O[C@@H]23)O1` [Topramax, reference compound], the “GAG Release, Pellet Assay (in words)” value in experiment [4] is listed as “No effect”. Further, in experiment [5], the “PGE2 Inhibition, Pellet Assay (in words)” value is “No effect”. Further, the “NO Inhibition, Pellet Assay (in words)” value in experiment [6] is recorded as “No effect”.
